Assay results taken from ChEMBL document CHEMBL1159197, “Novel bromopyrrole alkaloids from the sponge Agelas dispar” (1998).
Values after ≈ are worked out from the molar mass of the structure shown. Active and inactive are the calls of the source. The calls are words filed in the database; no cut-off is given here.

Key:
[1] = tested on: Bacillus subtilis; assay: Antimicrobial activity against Bacillus subtilis ATCC 6633; format: functional
[2] = tested on: Staphylococcus aureus; assay: Antimicrobial activity against Staphylococcus aureus ATCC 6538; format: functional
[3] = tested on: Aspergillus niger; assay: Antimicrobial activity against Aspergillus niger; format: functional, organism-based

Row | SMILES | Activity [1] | Activity [2] | Activity [3] | MIC [1] [µg/mL] | MIC [2] [µg/mL]
1 | C[C@]1(C[C@H](NC(=O)c2cc(Br)c[nH]2)C(=O)O)CNC=N1 | inactive | inactive | Active | – | –
2 | C[N+]1=CNC[C@]1(C)C[C@H](NC(=O)c1cc(Br)c[nH]1)C(=O)[O-] | – | – | Active | – | –
3 | O=C(O)C[C@H]1CNC(=O)c2cc(Br)c(Br)n21 [LONGAMIDE B] | – | – | – | 45 (≈ 128 µM) | 55 (≈ 156 µM)
4 | Cn1c(/C=C\CNC(=O)c2cc(Br)c[nH]2)cnc1N [KERAMADINE] | – | – | – | 40 (≈ 123 µM) | 35 (≈ 108 µM)
5 | C[C@]1(C[C@@H](NC(=O)c2cc(Br)c[nH]2)C(=O)O)CNC=N1 | inactive | inactive | Active | – | –
6 | C[N+]1=CNC[C@]1(C)C[C@@H](NC(=O)c1cc(Br)c[nH]1)C(=O)[O-] | – | – | Active | – | –
